Values of other authors, collected in patent US20010031747A1, “Progestin therapy for maintaining amenorrhea” (COLUMBIA LABORATORIES (BERMUDA) LIMITED, priority 1997, published 2001).
Where two headings read alike, the source gives them in different places.

Experiments:
[1] = nasal
[2] = subdermal, six 100 mg pellets
[3] = sublingual
endometrium = conditions: topical application to the breast
[4] = intramuscular; 100 mg doses

Mean maximum concentration ([1]; 20 mg dose): 2.1 ng/mL
Time of mean maximum concentration ([1]; 20 mg dose): approximately 30 minutes
Mean maximum concentration ([1]; 30 mg dose): 4.1 ng/mL
Time of mean maximum concentration ([1]; 30 mg dose): ~240 min
Mean peak progesterone level ([2]; six months after implantation): 1.9 ng/mL
Peak progesterone level ([2]; within the first week after insertion): 4.4 ng/mL
Time to return to basal levels [3]: twenty-four
Increase over baseline serum levels (vaginal suspension 50 mg/ml (carboxymethyl cellulose, methyl cellulose), after 15 minutes): 10 fold
Peak increase over baseline levels (vaginal suspension 50 mg/ml, at peak): thirty- to forty
Serum level after decline (vaginal suspension 50 mg/ml, declining over the next ten hours): 3.68 ng/mL
Peak serum level (vaginal suspension 50 mg/ml, maintained over the next seven hours): 12.25 ng/mL
Time to achieve serum concentrations [4]: two to eight
Compound: CC(=O)[C@H]1CC[C@H]2[C@@H]3CCC4=CC(=O)CC[C@]4(C)[C@H]3CC[C@]12C [progesterone]
Endometrial effects (endometrium): no significant endometrial effects
